Results on three molecules are retold here after patent US7687083B2, “Pharmaceutical compositions comprising old man's beard (Usnea barbata) and St. John's wort (Hypericum perforatum) and their use” (Universitatsklinikum Freiburg, priority 2004, dated 2010).

For test [1], the system named is Propionibacterium acnes. Kind of test: agar dilution test (MIC/MBC). Particulars: Cutibacterium acnes. In kind it is cell-based. The protocol:
The old man's beard CO2 extract (Usnea barbata L.) was tested in the concentrations 1:10, 1:50, 1:100, 1:500 and 1:1000 in the agar dilution test for a number of aerobic and anaerobic bacteria. The pure substance usnic acid was tested in concentrations of 128/64/32/16/8/4/2/1/0.5/0.25 and 0.125 μg/ml. The MIC (minimum inhibitory concentration) is defined as >90% inhibition of bacterial growth after 24 h. The MBC (minimum bactericidal concentration) is defined as >90% inhibition of the growth at 48 h.
For orientation: Agar dilution tests growth on a series of plates holding different concentrations.

Test [2] relates to Pityrosporon ovale. Kind of test: oil submersion test on Sabouraud agar with scales of patients with seborrhoeal eczema. In kind it is cell-based. The conditions noted are these: 1% in olive oil; incubation for 4 days. The protocol:
In addition, the efficacy against pityrosporon of 1% Usnea extract in olive oil in comparison with 1% amphotericin was investigated. For this purpose, scales of patients with seborrhoeal eczema were applied to Sabouraud agar and covered with a layer of the oil. After incubation for 4 days in an incubator, the number of colony-forming units was counted.

Test [3] can be described thus: UV erythema test. In kind it is in vivo, healthy test persons. The conditions noted are these: 1.5 times MED UVB, applied in Finn chambers for 24 hours; FIG. 5. The protocol:
The minimal erythema dose for UVB was determined in the case of seven healthy test persons. Thereafter, test fields on the back were exposed to 1.5 times the minimal erythema dose (MED). The test substances were applied in Finn chambers for 24 hours. The UV-induced erythema was determined photometrically before exposure and after action of the substances.

≈ marks a conversion by molar mass, not a printed value.

As a reminder, the MIC is the least concentration at which growth counts as inhibited. The term MBC denotes the lowest tested concentration that kills the bacteria rather than only halting them. A lower MBC goes with more potent killing. Take `CC(=O)c1c(O)c(C)c(O)c2c1OC1=CC(=O)C(C(C)=O)C(=O)C12C` (centres unmarked) [Usnic acid, usnic acid]: in test [1] (>90% inhibition of bacterial growth after 24 h), inhibition of growth (MIC) required 1 µg/mL (≈ 2.9 µM). The molecule also yielded an MBC in test [1] (>90% inhibition of the growth at 48 h) of 4 µg/mL (≈ 11.6 µM).
Consider `C[C@@H]1[C@H](O)[C@@H](C)/C=C/C=C/C=C/C=C/C=C/C=C/C=C/[C@H](O[C@@H]2O[C@H](C)[C@@H](O)[C@H](N)[C@@H]2O)C[C@@H]2O[C@](O)(C[C@@H](O)C[C@@H](O)[C@H](O)CC[C@@H](O)C[C@@H](O)CC(=O)O[C@H]1C)C[C@H](O)[C@H]2C(=O)O` [1% Amphotericin in olive oil, amphotericin], for which, in test [2], the “growth of the pityrosporon yeast fungi” value is “inhibited completely” and the “number of colony-forming units” value was found to be 1 CFU.
Take `CCOC(=O)O[C@]1(C(=O)COC(=O)CC)CC[C@H]2[C@@H]3CCC4=CC(=O)C=C[C@]4(C)[C@H]3[C@@H](O)C[C@@]21C` [Prednicarbate]: the “UV-induced inflammation (erythema, photometric)” value in test [3] is recorded as “inhibit the UV-induced inflammation”.
